# Counter-ions that a name gives are not always drawn.
# Molecular target: full-length human HDAC11 (Homo sapiens (Human), UniProt Q96DB2)
# Experiment: Probe binding HDAC11 time resolved fluorescence (TRF) assay
# Settings: Table 2, read-out: HDAC11 IC50 Range
# Method: The probe binding HDAC11 assay was performed using a time resolved fluorescence (TRF) assay format. Recombinant N-terminal GST tag full-length human HD AC 11 was expressed and purified from baculovirus in Sf9 insect cells (SignalChem, #H93-30G-1000). […] 4 μL of 2× probe and 2× anti-GST Terbium (Cisbio, #61GSTXLB) was added to assay plates followed by 4 μL of 2×HDAC11.
# Data from HD AC 11 Assays were reported as percent inhibition (inh) compared with control wells based on the following equation: % inh=1−((FLU−AveLow)/(AveHigh−AveLow)) where FLU=measured time resolved fluorescence. AveLow=average time resolved fluorescence of no enzyme control (n=32). AveHigh=average time resolved fluorescence of DMSO control (n=32). IC50 values were determined by curve fitting of the standard 4 parameter logistic fitting algorithm included in the Activity Base software package: IDBS XE Designer Model205. Data is fitted using the Levenburg Marquardt algorithm.
# Sequence of full-length human HDAC11 (Q96DB2 whole entry): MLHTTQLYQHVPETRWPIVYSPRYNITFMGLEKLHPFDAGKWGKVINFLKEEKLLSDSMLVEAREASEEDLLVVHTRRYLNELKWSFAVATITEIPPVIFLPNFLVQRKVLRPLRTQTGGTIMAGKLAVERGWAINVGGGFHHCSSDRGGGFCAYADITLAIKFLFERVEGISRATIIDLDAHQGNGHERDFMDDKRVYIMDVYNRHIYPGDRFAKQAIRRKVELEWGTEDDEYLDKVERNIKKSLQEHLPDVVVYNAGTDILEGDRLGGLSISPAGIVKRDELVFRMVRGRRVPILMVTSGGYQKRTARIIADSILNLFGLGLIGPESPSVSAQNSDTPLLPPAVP
row,Compound,IC50 [µM]
1,"CC1(C)c2cccc(C(=O)NO)c2CN1C(=O)c1ccc(C(F)(F)F)cc1 [Compound 28-1, N-hydroxy-1,1-dimethyl-2-(4-(trifluoromethyl)benzoyl)isoindoline-4-carboxamide]",> 1
2,"CC1(C)c2cccc(C(=O)NO)c2CN1C(=O)c1cccc(C(F)(F)F)c1 [Compound 28-2, N-hydroxy-1,1-dimethyl-2-(3-(trifluoromethyl)benzoyl)isoindoline-4-carboxamide]",> 1
3,"CCC(C(=O)N1Cc2cccc(C(=O)NO)c2C1)c1ccc(OC)cc1 (centres unmarked) [Compound 28-3, N-hydroxy-2-(2-(4-methoxyphenyl)butanoyl)isoindoline-4-carboxamide]",> 1
4,"CC1(C)c2cccc(C(=O)NO)c2CN1C(=O)Nc1ccc(C(F)(F)F)cc1 [Compound 29-1, N4-hydroxy-1,1-dimethyl-N2-(4-(trifluoromethyl)phenyl)isoindoline-2,4-dicarboxamide]",< 0.5
5,"CC1(C)c2cccc(C(=O)NO)c2CN1C(=O)Nc1ccc(C(F)(F)F)nc1 [Compound 30-1, N4-hydroxy-1,1-dimethyl-N2-(6-(trifluoromethyl)pyridin-3-yl)isoindoline-2,4-dicarboxamide]",0.5 to 1
6,"CC1(C)c2cccc(C(=O)NO)c2CN1C(=O)Nc1ccc(C(F)(F)F)cn1 [Compound 30-2, N4-hydroxy-1,1-dimethyl-N2-(5-(trifluoromethyl)pyridin-2-yl)isoindoline-2,4-dicarboxamide]",> 1
7,"CC1(C)c2cccc(C(=O)NO)c2CN1C(=O)Nc1ccnc(C(F)(F)F)c1 [Compound 30-3, N4-hydroxy-1,1-dimethyl-N2-(2-(trifluoromethyl)pyridin-4-yl)isoindoline-2,4-dicarboxamide]",< 0.5
8,"CC1(C)c2cccc(C(=O)NO)c2CN1C(=O)Nc1cncc(C(F)(F)F)c1 [Compound 30-4, N4-hydroxy-1,1-dimethyl-N2-(5-(trifluoromethyl)pyridin-3-yl)isoindoline-2,4-dicarboxamide]",> 1
9,"CC1(C)c2cccc(C(=O)NO)c2CN1C(=O)Nc1cc(C(F)(F)F)ccn1 [Compound 30-5, N4-hydroxy-1,1-dimethyl-N2-(4-(trifluoromethyl)pyridin-2-yl)isoindoline-2,4-dicarboxamide]",< 0.5
10,"CC1(C)c2cccc(C(=O)NO)c2CN1C(=O)Nc1cccc(C(F)(F)F)n1 [Compound 30-6, N4-hydroxy-1,1-dimethyl-N2-(6-(trifluoromethyl)pyridin-2-yl)isoindoline-2,4-dicarboxamide]",> 1
11,"CC1(C)c2cccc(C(=O)NO)c2CN1C(=O)Nc1nc2ccccc2o1 [Compound 30-7, N2-(benzo[d]oxazol-2-yl)-N4-hydroxy-1,1-dimethylisoindoline-2,4-dicarboxamide]",> 1
12,"CC1(C)c2cccc(C(=O)NO)c2CN1C(=O)Nc1cc2c(cn1)CCCC2 [Compound 31-1, N4-hydroxy-1,1-dimethyl-N2-(5,6,7,8-tetrahydroisoquinolin-3-yl)isoindoline-2,4-dicarboxamide]",0.5 to 1
13,"COc1ccc(CN2Cc3c(C(=O)NO)cccc3C2(C)C)cc1 [Compound 32-1, N-hydroxy-2-(4-methoxybenzyl)-1,1-dimethylisoindoline-4-carboxamide hydrochloride]",> 1
14,"CC1(C)c2ccnc(C(=O)NO)c2CN1c1ccc(C(F)(F)F)cn1 [Compound 33-1, N-hydroxy-1,1-dimethyl-2-(5-(trifluoromethyl)pyridin-2-yl)-2,3-dihydro-1H-pyrrolo [3,4-c]pyridine-4-carboxamide]",0.5 to 1
15,"O=C(NO)c1cccc2c1CN(c1nc3cc(C(F)(F)F)c(-c4ccccc4)cc3[nH]1)C2 [Compound 34-1, N-hydroxy-2-(5-phenyl-6-(trifluoromethyl)-1H-benzo[d]imidazol-2-yl)isoindoline-4-carboxamide]",< 0.5
16,"O=C(NO)c1cccc2c1CN(c1nc3cc(C(F)(F)F)cc(-c4ccccc4)c3[nH]1)C2 [Compound 35-1, N-hydroxy-2-(7-phenyl-5-(trifluoromethyl)-1H-benzo[d]imidazol-2-yl)isoindoline-4-carboxamide]",0.5 to 1
17,"O=C(NO)c1cccc2c1CN(c1nc3cccc(-c4ccccc4)c3[nH]1)C2 [Compound 35-2, N-hydroxy-2-(7-phenyl-1H-benzo[d]imidazol-2-yl)isoindoline-4-carboxamide]",> 1
18,"O=C(NO)c1cccc2c1CN(c1nc3ccccc3o1)C2=O [Compound 36-1, 2-(benzo[d]oxazol-2-yl)-N-hydroxy-1-oxoisoindoline-4-carboxamide]",> 1
19,"O=C(NO)c1cccc2c1CN(c1nc3cc(C(F)(F)F)ccc3o1)C2=O [Compound 36-2, N-hydroxy-1-oxo-2-(5-(trifluoromethyl)benzo[d]oxazol-2-yl)isoindoline-4-carboxamide]",< 0.5

row,Compound,IC50 [µM]
1,"O=C(NO)c1cccc2cc(-c3ccc(C(F)(F)F)cc3)[nH]c12 [Compound 37-1, N-hydroxy-2-(4-(trifluoromethyl)phenyl)-1H-indole-7-carboxamide]",0.5 to 1
2,"O=C(NO)c1cccc2[nH]c(-c3ccc(C(F)(F)F)cc3)cc12 [Compound 37-2, N-hydroxy-2-(4-(trifluoromethyl)phenyl)-1H-indole-4-carboxamide]",0.5 to 1
3,"O=C(NO)c1cccc2cc(-c3cnc(C(F)(F)F)cn3)[nH]c12 [Compound 37-3, N-hydroxy-2-(5-(trifluoromethyl)pyrazin-2-yl)-1H-indole-7-carboxamide]",< 0.5
4,"O=C(NO)c1cccc2[nH]c(-c3cnc(C(F)(F)F)cn3)cc12 [Compound 37-4, N-hydroxy-2-(5-(trifluoromethyl)pyrazin-2-yl)-1H-indole-4-carboxamide]",< 0.5
5,"O=C(NO)c1cccc2c1NC(c1ccc(C(F)(F)F)cc1)C2 (centres unmarked) [Compound 38-1, N-hydroxy-2-(4-(trifluoromethyl)phenyl)indoline-7-carboxamide]",0.5 to 1
6,"O=C(NO)c1cccc2c1CC(c1ccc(C(F)(F)F)cc1)N2 (centres unmarked) [Compound 38-2, N-hydroxy-2-(4-(trifluoromethyl)phenyl)indoline-4-carboxamide]",> 1
7,"O=C(NO)c1cccc2c1N[C@@H](c1ccc(C(F)(F)F)cc1)C2 [Compound 39-1, (R)—N-hydroxy-2-(4-(trifluoromethyl)phenyl)indoline-7-carboxamide]",< 0.5
8,"O=C(NO)c1cccc2c1N[C@H](c1ccc(C(F)(F)F)cc1)C2 [Compound 39-2, (S)—N-hydroxy-2-(4-(trifluoromethyl)phenyl)indoline-7-carboxamide]",> 1
9,"CC1(C)c2cccc(C(=O)NO)c2N[C@H]1c1ccc(C(F)(F)F)cn1 [Compound 40-1, (R)—N-hydroxy-3,3-dimethyl-2-(5-(trifluoromethyl)pyridin-2-yl)indoline-7-carboxamide]",> 1
10,"CC1(C)c2cccc(C(=O)NO)c2N[C@@H]1c1ccc(C(F)(F)F)cn1 [Compound 40-2, (S)—N-hydroxy-3,3-dimethyl-2-(5-(trifluoromethyl)pyridin-2-yl)indoline-7-carboxamide]",< 0.5
11,"CC1(C)c2cccc(C(=O)NO)c2N[C@H]1c1cnc(C(F)(F)F)cn1 [Compound 40-3, (R)-N-hydroxy-3,3-dimethyl-2-(5-(trifluoromethyl)pyrazin-2-yl)indoline-7-carboxamide]",< 0.5
12,"CC1(C)c2cccc(C(=O)NO)c2N[C@@H]1c1cnc(C(F)(F)F)cn1 [Compound 40-4, (S)-N-hydroxy-3,3-dimethyl-2-(5-(trifluoromethyl)pyrazin-2-yl)indoline-7-carboxamide]",> 1
13,"CC1(C)c2cccc(C(=O)NO)c2N[C@H]1c1ccc(C(F)(F)F)cc1 [Compound 40-5, (S)-N-hydroxy-3,3-dimethyl-2-(4-(trifluoromethyl)phenyl)indoline-7-carboxamide]",0.5 to 1
14,"CC1(C)c2cccc(C(=O)NO)c2N[C@@H]1c1ccc(C(F)(F)F)cc1 [Compound 40-6, (R)-N-hydroxy-3,3-dimethyl-2-(4-(trifluoromethyl)phenyl)indoline-7-carboxamide]",> 1
15,"O=C(NO)c1cccc2c1CN(C(=O)c1ccccc1)C2 [Compound 41-1, 2-benzoyl-N-hydroxyisoindoline-4-carboxamide]",> 1
16,"COc1ccc(CN2Cc3cccc(C(=O)NO)c3C2)cc1 [Compound 41-2, N-hydroxy-2-(4-methoxybenzyl)isoindoline-4-carboxamide]",> 1
17,"O=C(NO)c1cccc2c1CN(c1ccccc1)C2 [Compound 42-1, N-hydroxy-2-phenylisoindoline-4-carboxamide]",> 1
18,"O=C(NO)c1cccc2c1CN(C1=NC(O)(C(F)(F)F)C(c3ccccc3)=N1)C2 (centres unmarked) [Compound 44-1, N-hydroxy-2-(4-hydroxy-5-phenyl-4-(trifluoromethyl)-4H-imidazol-2-yl)isoindoline-4-carboxamide]",> 1
19,"O=C(NO)c1cccc2c1CN(c1cccc(C(F)(F)F)n1)C2 [Compound 45-2, N-hydroxy-2-(6-(trifluoromethyl)pyridin-2-yl)isoindoline-4-carboxamide]",> 1

# — patent publication US11535607B2, “Isoindolines as HDAC inhibitors” (Valo Health, Inc., priority 2018, dated 2022)
